From US20120321694A1, “COMPOSITIONS AND USES” (priority 2010, published 2012)
Where no end group is shown, it is not given here.

Tests used:
APPSwe/PS1 mice = assay: T-water maze; assay type: in vivo; conditions: for T-water maze, spatial memory: Example 21, twelve weekly injections, 3D MPL 50 μg, CRX527 20 μg, CRX601 20 μg i.p., AS01B 1/10th human dose i.m., vs non treated, FIG. 24
Method: Five groups of APPSwe/PS1 mice received one a week for a period of 12 weeks the following treatment: • Gr1: APPSwe/PS1+NaCl 0.9% n(=20), i.p. injections • Gr4: APPSwe/PS1+CRX527 (20 μg/mouse, 130 μl, n=10), i.p. injections • Gr5: APPSwe/PS1+CRX601 (20 μg/mouse, 130 μl, n=10), i.p. injections • Gr6: APPSwe/PS1+3D MPL (50 μg/mouse, 130 μl, n=10), i.p. injections • Gr8 APPSwe/PS1+AS15 ( 1/10th of human dose, 50 μl, n=10), i.m. injections • Gr9: APPSwe/PS1+AS01B ( 1/10th of human dose, 50 μl, n=10), i.m. injections
Mice were tested during the “light on” phase of the day. Behavioral experimenter was blinded to the genetic and treatment status of animals. To assess hippocampal-dependent spatial learning and memory, mice were trained in the T-water maze task. In this paradigm, we evaluate the mouse's ability to remember the spatial location of submerged platform. The T-maze apparatus (length of stem, 64 cm; length of arms, 30 cm; width, 12 cm; height of walls, 16 cm) was made of clear fiberglass and filled with water (23±1° C.) at a height of 12 cm. A platform (11×11 cm) was placed at the end of the target arm and was submerged 1 cm below the surface. The acquisition phase allows to evaluate animals for left-right spatial learning. During the first two trials, platforms were placed on each arms of the maze to test the spontaneous turning preference of the mouse. After these two trials, the least chosen arm was reinforced by the escape platform. The mice were placed in the stem of the T-maze and choose to swim either left or right until they found the submerged platform and escape to it, to a maximum of 60 s. After reaching the platform, the mice remained on it for 20 s and then were immediately placed back in the maze. […] Repeated trials were presented on the same day up to a maximum of 48 trials. A rest period of at least 10-15 min intervened between each block of 10 trials. A mouse was considered to have learned the task when it made no errors in a block of five consecutive trials. The reversal learning phase was then conducted 48 h later. During this phase, the same protocol was repeated, except that the mice were trained to find the escape platform on the opposite side to that on which they had learned on acquisition phase. The number of trials to reach the criterion (five of five correct choices made on consecutive trials) was measured as well as the latency to find the escape platform.

[1] = system: CD11b+ peripheral blood monocytes; assay: In vivo uptake assay of Aβ42 after immunization or passive immunotherapy; parameters: species or system C57BL/6 mice; conditions: FIG. 22
Method: (§1) Cells were finally washed twice and fixed for 15 min. with a 2% paraformaldehyde solution in PBS. FMOs controls were always included in the assays.
(§2) Cells were finally washed twice and fixed for 15 min. with a 2% paraformaldehyde solution in PBS. FMOs controls were always included in the assays. Samples were acquired on a flow cytometer (BD FACSCanto II) and data analyzed with the FACSDiva software (BD Biosciences). Monocytes were identified and counted by their Side/Forward scatter properties, excluding debris and gated as CD3-/CD45R/B220-/Ly-6G-/NK1.1-(Lineage-)/CD11b+ cells.

[2] = system: Lineage- CD11b+ monocytes in peripheral blood; assay: Monocyte analysis and counting after adjuvant injection in mice; assay type: in vivo, C57BL/6 mice
Method: (§3) 24-Hours after injection of the TLR adjuvants, peripheral blood was drawn from C57BL/6 mice via cardiac puncture with lithium-heparin as anticoagulant. Red blood cell lysis was performed twice on pooled blood with Ammonium Chloride-based Buffer (Sigma, Steinheim, Germany) and cells were counted with the EasyCount™ System (Immunicon). […] Cells were finally washed three times and fixed for 15 min. with a 2% paraformaldehyde solution in PBS. Fluorescence minus one (FMO) controls were always included in the assays for fluorescent compensation setting. Samples were acquired on a flow cytometer (BD FACSCanto II) and data analyzed with the FACSDiva software (BD Biosciences). Monocytes were identified by their Side/Forward scatter properties and gated as CD3-/CD45R/B220-/Ly-6G-/NK1.1-(Lineage-)/CD11b+ cells. CD11b+ monocyte frequency was reported as a percentage of the total cells excluding debris.
as §3, with “24 hours” for “24-Hours”, “each immunomodulator,” for “the TLR adjuvants,”, “min” for “min.”, “monocytes” for “monocyte”
as §2

[3] = system: CD11b+ peripheral blood monocytes; assay: Ex vivo uptake assay of Aβ1-42 by peripheral blood monocytes; assay type: cell-based, C57BL/6 mice
Method: (§4) Red blood cell lysis was performed twice on pooled blood with Ammonium Chloride-based Buffer (Sigma, Steinheim, Germany) and cells were counted with the EasyCount™ System (Immunicon).
as §1, §4

[4] = system: human microglial cell line CHME; assay: Phagocytosis of Aβ1-42 by CHME microglial cell line; assay type: cell-based; conditions: FIG. 18
Method: Phagocytosis of beta-amyloid 1-42 peptide by the human microglial cell line CHME was observed after the addition of TLR2 agonist containing adjuvants Protollin and Pam3CysLip peptide. […] The synthetic peptide sequence of the Pam3Cys Lip peptide is described herein: Pam3Cys—SQ EPAAPAAEAT PAAEAP. Protollin was used at concentration 1 ug per ml based on the LPS content from Shigella flexneri. Pam3Cys lip peptide was used at concentration of 5 ug per ml of the pure tri-palmitoylated peptide.
Additionally, cells were imaged using 42 HiLyte 488 Fluo (Anaspec, Inc.) at 2 ug per ml in DMEM complete media (Invitrogen). Lysotracker red staining was performed and slides were mounted and co-stained with DAPI to show the nucleus (blue). […] Lysotracker red reagent was purchased from Invitrogen and used as manufacturer recommendations.

Compound: CCCCCCCCCCC[C@H](CC(=O)N[C@H]1[C@H](OC[C@H](NC(=O)C[C@@H](CCCCCCCCCCC)OC(=O)CCCCCCCCC)C(=O)O)O[C@H](CO)[C@@H](OP(=O)(O)O)[C@@H]1OC(=O)C[C@@H](CCCCCCCCCCC)OC(=O)CCCCCCCCC)OC(=O)CCCCCCCCC [CRX527]
- T-water maze, spatial memory (APPSwe/PS1 mice): spatial memory improvement
- T-water maze, spatial memory (APPSwe/PS1 mice; listed as CRX 527): significant improvements in behaviour

Compound: CCCCCCCCCCC[C@H](CC(=O)N[C@H]1[C@H](OC[C@H](NC(=O)C[C@@H](CCCCCCCCCCC)OCCCCCCCCCC)C(=O)O)O[C@H](CO)[C@@H](OP(=O)(O)O)[C@@H]1OC(=O)C[C@@H](CCCCCCCCCCC)OCCCCCCCCCC)OCCCCCCCCCC [CRX601]
- antibody-mediated Aβ uptake in peripheral blood monocytes ([1]; CRX601 at 20 ug when combined with AS03 emulsion): partially quenched
- antibody-mediated Aβ uptake in peripheral blood monocytes ([1]; CRX601 at 20 ug, single i.m., plus 15 ug 2E7): triggers highest Aβ uptake
- antibody-mediated Aβ uptake in peripheral blood monocytes ([1]; single i.m. injection of different doses plus 15 ug 2E7, Aβ Fluor i.v. 24 hr later): Dose-response observed
- T-water maze, spatial memory (APPSwe/PS1 mice): spatial memory improvement
- T-water maze, spatial memory (APPSwe/PS1 mice; listed as CRX 601): significant improvements in behaviour
- T-water maze, cognitive functions (APPSwe/PS1 mice; Example 22, i.m., 12× weekly from 3 months old, CRX601 2 μg, CRX601 2 ug in AS03, 3D MPL 5 ug, AS01B 1/10 human dose, vs PBS, unpaired t-tests, FIG. 27A): significant improvement of their cognitive functions
- dose of maximum monocyte response ([2]; single i.m., 0.2-20 ug/mouse, FIG. 12): 10 µg
- dose enough to trigger an increase of the monocyte count ([2]; single i.m., 24 hrs, compared to PBS, FIG. 12): 1 µg
- effect on monocyte count at 20 μg dose ([2]; single i.m., FIG. 12): down modulated
- ex vivo uptake of Aβ42 by peripheral blood monocytes ([3]; i.m. AS01B mouse full dose (5 ug per mouse) or CRX601 2 μg, vs PBS group, FIG. 14): uptake an higher amount of Aβ42

Compound: Pam3Cys—SQ EPAAPAAEAT PAAEAP (Pam3Cys-SQEPAAPAAEATPAAEAP) [Pam3CysLip peptide, TLR2 agonist, tri-palmitoylated peptide from Neisseria meningitidis strain 8047]
- phagocytosis of beta-amyloid 1-42 peptide ([4]; 5 ug per ml, pre-incubation 18 hrs): 86 % of cells
- amyloid phagocytic activity ([4]; Pam3CysLip peptide 5 ug per ml, Protollin 1 ug per ml (LPS content), compared to PBS): higher amyloid phagocytic activity

Compound: QS21 [reference compound]
- number of monocytes, of total peripheral white blood cells ([2]; 24 hrs after single i.m. injection (5 μg QS21), FIG. 19A): 9.1%
- activated Ly6C+ monocytes ([2]; 24 hrs after single i.m. injection (5 μg QS21), FIG. 19B): 75%
- ex vivo Aβ42 uptake by peripheral blood monocytes ([3]; i.m. injection, 24 hrs, compared to PBS, QS21 (5 ug), liposomal MPL (5 ug) or MPL (5 ug), FIG. 20): does not promote Aβ uptake
